Target: T1, KRAS G12C 1-169, his-tagged protein, GDP-loaded (Homo sapiens, UniProt P01116, G12C)
T1 construct: KRAS G12C 1-169, his-tagged protein, GDP-loaded
Assay: Biochemical assay: covalent modification of KRAS G12C measured by mass spectrometry (RapidFire/TOF or Q-Exactive)
Conditions: covalent binding to KRAS G12C
Procedure, shortened: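 Covalent adduct formation read by intact-mass spectrometry (TOF or Q Exactive Plus, charge envelopes deconvoluted into modified and unmodified species) after formic acid quench. Reactions contained 2 μM GDP-bound KRAS G12C 1-169 (his-tag) in Hepes/NaCl/MgCl2 buffer plus 10, 30 or 100 μM final compound, held 30 min, 2 h or 24 h at room temperature.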

Row | SMILES | Binding % (compounds of structure (I)) | Binding % (compounds of structure (III))
1 | C=CC(=O)N1CCN(c2nc(NC3CCN(C4CC4)CC3)nc3c(F)c(-c4c(O)cccc4F)c(Cl)cc23)CC1 (atropisomer, axis not shown) [Example I-78, (S)-1-(4-(6-chloro-2-(1-cyclopropyl-piperidin-4-ylamino)-8-fluoro-7-(2-fluoro-6-hydroxyphenyl)quinazolin-4-yl)piperazin-1-yl)prop-2-en-1-one] | +++ (+++ indicates binding activity greater than 90%) | –
2 | C=CC(=O)N1CCN(c2nc(OCCN3CCOCC3)nc3c(F)c(-c4c(F)cccc4OC)c(Cl)cc23)CC1 [Example I-39, 1-(4-(6-chloro-8-fluoro-7-(2-fluoro-6-methoxyphenyl)-2-(2-morpholino-ethoxy)quinazolin-4-yl)piperazin-1-yl)prop-2-en-1-one] | +++ (+++ indicates binding activity greater than 90%) | –
3 | C=CC(=O)N1CCN(c2nc(OC3COC3)nc3c(F)c(-c4c(O)cccc4F)c(Cl)cc23)CC1 [Example I-19, 1-(4-(6-chloro-8-fluoro-7-(2-fluoro-6-hydroxyphenyl)-2-(oxetan-3-yloxy)quinazolin-4-yl)piperazin-1-yl)prop-2-en-1-one] | ++ (++ indicates binding activity from 50 to 90%) | –
4 | C=CC(=O)N1CCN(c2nc(OC3CCN(C)CC3)nc3c(F)c(-c4c(O)cccc4F)c(Cl)cc23)CC1 [Example I-92, 1-(4-(6-chloro-8-fluoro-7-(2-fluoro-6-hydroxyphenyl)-2-(1-methyl-piperidin-4-yloxy)quinazolin-4-yl)piperazin-1-yl)prop-2-en-1-one] | +++ (+++ indicates binding activity greater than 90%) | –
5 | C=CC(=O)N1C[C@@H](C)N(c2ncnc3c(F)c(-c4c(O)cccc4F)c(Cl)cc23)[C@@H](C)C1 (atropisomer, axis not shown) [III-4, 1-((3S,5R)-4-((R)-6-chloro-8-fluoro-7-(2-fluoro-6-hydroxy-phenyl)quinazolin-4-yl)-3,5-dimethyl-piperazin-1-yl)prop-2-en-1-one] | – | + (+ indicates binding activity up to 50%)
6 | C=CC(=O)N1C[C@@H](C)N(c2ncnc3c(F)c(-c4cc(O)cc5ccccc45)c(Cl)cc23)[C@@H](C)C1 [III-41, 1-((3S,5R)-4-(6-chloro-8-fluoro-7-(3-hydroxy-naphthalen-1-yl)quinazolin-4-yl)-3,5-dimethyl-piperazin-1-yl)prop-2-en-1-one] | – | ++ (++ indicates activity from 50% to 90%)
7 | C=CC(=O)N1CCN(c2nc(Oc3cn[nH]c3)nc3c(F)c(-c4c(O)cccc4F)c(Cl)cc23)CC1 [Example I-64, 1-(4-(2-(1H-pyrazol-4-yloxy)-6-chloro-8-fluoro-7-(2-fluoro-6-hydroxyphenyl)quinazolin-4-yl)piperazin-1-yl) prop-2-en-1-one] | +++ (+++ indicates binding activity greater than 90%) | –
8 | C=CC(=O)N1CCN(c2nc(OCCN3CCOCC3)nc3c(F)c(-c4c(C)ccc5[nH]ncc45)c(Cl)cc23)CC1 (atropisomer, axis not shown) [Example I-32, (S)-1-(4-(6-chloro-8-fluoro-7-(5-methyl-1H-indazol-4-yl)-2-(2-morpholino-ethoxy)quinazolin-4-yl)piperazin-1-yl)prop-2-en-1-one] | + (+ indicates binding activity up to 50%) | –
9 | C=CC(=O)N1CCN(c2nc(N3CC(N(C)C)C3)nc3c(F)c(-c4c(O)cccc4F)c(Cl)cc23)CC1 (atropisomer, axis not shown) [Example I-116, (S)-1-(4-(6-chloro-2-(3-(dimethylamino)azetidin-1-yl)-8-fluoro-7-(2-fluoro-6-hydroxyphenyl)quinazolin-4-yl)piperazin-1-yl) prop-2-en-1-one] | +++ (+++ indicates binding activity greater than 90%) | –
10 | C=CC(=O)N1CCN(c2nc(NC3CCN(C4CC4)CC3)nc3c(F)c(-c4c(C)ccc5[nH]ncc45)c(Cl)cc23)CC1 (atropisomer, axis not shown) [Example I-81, (S)-1-(4-(6-chloro-2-(1-cyclopropyl-piperidin-4-ylamino)-8-fluoro-7-(5-methyl-1H-indazol-4-yl)quinazolin-4-yl)piperazin-1-yl)prop-2-en-1-one] | + (+ indicates binding activity up to 50%) | –
11 | C=CC(=O)N1CCN(c2nc(NC3CCN(C4COC4)CC3)nc3c(F)c(-c4c(C)ccc5[nH]ncc45)c(Cl)cc23)CC1 [Example I-137, 1-(4-(6-chloro-8-fluoro-7-(5-methyl-1H-indazol-4-yl)-2-(1-(oxetan-3-yl)piperidin-4-ylamino)quinazolin-4-yl)piperazin-1-yl) prop-2-en-1-one] | +++ (+++ indicates binding activity greater than 90%) | –
12 | C=CC(=O)N1CCN(c2nc(OCCN(CC)CC)nc3c(F)c(-c4c(C)ccc5[nH]ncc45)c(Cl)cc23)CC1 [Example I-130, 1-(4-(6-chloro-2-(2-(diethyl-amino)ethoxy)-8-fluoro-7-(5-methyl-1H-indazol-4-yl)quinazolin-4-yl)piperazin-1-yl) prop-2-en-1-one] | +++ (+++ indicates binding activity greater than 90%) | –
13 | C=CC(=O)N1CCN(c2nc(N3CCCC3)nc3c(F)c(-c4c(O)cccc4F)c(Cl)cc23)CC1 [Example I-147, 1-(4-(6-chloro-8-fluoro-7-(2-fluoro-6-hydroxyphenyl)-2-(pyrrolidin-1-yl)quinazolin-4-yl)piperazin-1-yl)prop-2-en-1-one] | ++ (++ indicates binding activity from 50 to 90%) | –
14 | C=CC(=O)N1CCN(c2nc(NC3CCN(C(C)C)CC3)nc3c(F)c(-c4c(C)ccc5[nH]ncc45)c(Cl)cc23)CC1 [Example I-136, 1-(4-(6-chloro-8-fluoro-2-(1-isopropyl-piperidin-4-ylamino)-7-(5-methyl-1H-indazol-4-yl)quinazolin-4-yl)piperazin-1-yl) prop-2-en-1-one] | +++ (+++ indicates binding activity greater than 90%) | –
15 | C=CC(=O)N1CCN(c2nc(NCCF)nc3c(F)c(-c4cc(O)cc5ccccc45)c(Cl)cc23)CC1 [Example I-61, 1-(4-(6-chloro-8-fluoro-2-(2-fluoroethyl-amino)-7-(3-hydroxy-naphthalen-1-yl)quinazolin-4-yl)piperazin-1-yl)prop-2-en-1-one] | +++ (+++ indicates binding activity greater than 90%) | –
16 | C=CC(=O)N1CCN(c2nc(OCC3CN(c4ncccn4)C3)nc3c(F)c(-c4c(C)ccc5[nH]ncc45)c(Cl)cc23)CC1 [Example I-170, 1-(4-(6-chloro-8-fluoro-7-(5-methyl-1H-indazol-4-yl)-2-((1-(pyrimidin-2-yl)azetidin-3-yl)methoxy)quinazolin-4-yl)piperazin-1-yl) prop-2-en-1-one] | ++ (++ indicates binding activity from 50 to 90%) | –
17 | C=CC(=O)N1CCN(c2nc(OCCN(CC)CC)nc3c(F)c(-c4c(O)cccc4F)c(Cl)cc23)CC1 [Example I-40, 1-(4-(6-chloro-2-(2-(diethyl-amino)ethoxy)-8-fluoro-7-(2-fluoro-6-hydroxyphenyl)quinazolin-4-yl)piperazin-1-yl) prop-2-en-1-one] | +++ (+++ indicates binding activity greater than 90%) | –
18 | C=CC(=O)N1CCN(c2nc(Oc3cnn(C)c3)nc3c(F)c(-c4c(O)cccc4F)c(Cl)cc23)CC1 [Example I-25, 1-(4-(6-chloro-8-fluoro-7-(2-fluoro-6-hydroxyphenyl)-2-(1-methyl-1H-pyrazol-4-yloxy)quinazolin-4-yl)piperazin-1-yl)prop-2-en-1-one] | +++ (+++ indicates binding activity greater than 90%) | –
19 | C=C(F)C(=O)N1CCN(c2nc(OCCN3CCOCC3)nc3c(F)c(-c4cc(O)cc5ccccc45)c(Cl)cc23)CC1 [Example I-50, 1-(4-(6-chloro-8-fluoro-7-(3-hydroxy-naphthalen-1-yl)-2-(2-morpholino-ethoxy)quinazolin-4-yl)piperazin-1-yl)-2-fluoroprop-2-en-1-one] | ++ (++ indicates binding activity from 50 to 90%) | –
20 | C=CC(=O)N1CCN(c2nc(N3CC(N4CCC4)C3)nc3c(F)c(-c4c(O)cccc4F)c(Cl)cc23)CC1 [Example I-162, 1-(4-(2-([1,3′-biazetidin]-1′-yl)-6-chloro-8-fluoro-7-(2-fluoro-6-hydroxyphenyl)quinazolin-4-yl)piperazin-1-yl) prop-2-en-1-one] | + (+ indicates binding activity up to 50%) | –
21 | C=CC(=O)N1CCN(c2nc(N3CC(N4CCN(C5CC5)CC4)C3)nc3c(F)c(-c4c(O)cccc4F)c(Cl)cc23)CC1 [Example I-166, 1-(4-(6-chloro-2-(3-(4-cyclopropyl-piperazin-1-yl)azetidin-1-yl)-8-fluoro-7-(2-fluoro-6-hydroxyphenyl)quinazolin-4-yl)piperazin-1-yl) prop-2-en-1-one] | ++ (++ indicates binding activity from 50 to 90%) | –
22 | C=CC(=O)N1CCN(c2nc(OCCN3CCOCC3)nc3c(F)c(-c4ccccc4C(F)(F)F)c(Cl)cc23)CC1 [Example I-48, 1-(4-(6-chloro-8-fluoro-2-(2-morpholino-ethoxy)-7-(2-(trifluoromethyl)phenyl)quinazolin-4-yl)piperazin-1-yl)prop-2-en-1-one] | +++ (+++ indicates binding activity greater than 90%) | –
23 | C=CC(=O)N1CCN(c2nc(N3CC4(CN(C)C4)C3)nc3c(F)c(-c4c(C)ccc5[nH]ncc45)c(Cl)cc23)CC1 [Example I-157, 1-(4-(6-chloro-8-fluoro-7-(5-methyl-1H-indazol-4-yl)-2-(6-methyl-2,6-diazaspiro [3.3]heptan-2-yl)quinazolin-4-yl)piperazin-1-yl) prop-2-en-1-one] | +++ (+++ indicates binding activity greater than 90%) | –
24 | C=CC(=O)N1CCN(c2ncnc3c(F)c(-c4c(O)cccc4F)c(Cl)cc23)[C@@H](CC)C1 [III-32, 1-((3S)-4-(6-chloro-8-fluoro-7-(2-fluoro-6-hydroxy-phenyl)quinazolin-4-yl)-3-ethyl-piperazin-1-yl)prop-2-en-1-one] | – | ++ (++ indicates activity from 50% to 90%)

— patent US10829458B2 (Araxes Pharma LLC, priority 2015, dated 2020)
